Test [1] deals with ssAf20 (RNA) (RNA, single strand) CAAUUGUAUAUAUUCG
Put plainly: fluorescence titration. To be noted: 40 mM K+; 20 mM Tris HCl pH 7.0, 25 °C, 2 μM ThT, 1:1 fit.

Test [2] concerns tRNA-Cys fragment (RNA, G4) GGGGGUAUAGCUCAGUGGUAGAGCAUUUGA
Put plainly: fluorescence enhancement. As to conditions: 40 mM K+; 20 mM Tris HCl pH 7.0, 2 μM ThT, 4 μM RNA; F/F0 57-fold.

Test [3] concerns Spinach (RNA, aptamer) GCAGCCGGCUUGUUGAGUAGAGUGUGAGCUCCGUAACUGGUCGCGUC/GACGCGACCGAAUGAAAUGGUGAAGGACGGGUCCAGCCGGCUGC
In words: fluorescence enhancement. To be noted: 40 mM K+; 20 mM Tris HCl pH 7.0, 2 μM ThT, 4 μM RNA; F/F0 487-fold.

The subject of test [4] is tRNA-Ala fragment (RNA, G4) GGGGGUGUAGCUCAGUGGUAGAGCGCGUGC
In words: fluorescence enhancement. As to conditions: 40 mM K+; 20 mM Tris HCl pH 7.0, 2 μM ThT, 4 μM RNA; F/F0 88-fold.

The test system of test [5] is BCL-2 (RNA) (RNA, G4) AGGGGGCCGUGGGGUGGGAGCUGGGG
Put plainly: fluorescence titration. To be noted: 40 mM K+; 20 mM Tris HCl pH 7.0, 25 °C, 2 μM ThT, 1:1 fit.

Test [6] has as its system HP18 (RNA) (RNA, hairpin) CAGUACAGAUCUGUACUG
In words: fluorescence titration. To be noted: 40 mM K+; 20 mM Tris HCl pH 7.0, 25 °C, 2 μM ThT, 1:1 fit.

Test [7] has as its system C9orf72 (RNA) (RNA, G4) GGGGCCGGGGCCGGGGCCGGGGCC
In words: fluorescence titration. As to conditions: 40 mM K+; 20 mM Tris HCl pH 7.0, 25 °C, 2 μM ThT, 1:1 fit.

The subject of test [8] is HP18 (DNA) (DNA, hairpin) CAGTACAGATCTGTACTG
In words: fluorescence enhancement. As to conditions: 40 mM K+; 20 mM Tris HCl pH 7.0; F/F0 36-fold.

Test [9] deals with ssAf22 (RNA, single strand) UGAGCUUAAUUGUAUAUAUUCG
Put plainly: fluorescence titration. To be noted: 40 mM K+; 20 mM Tris HCl pH 7.0, 25 °C, 2 μM ThT, 1:1 fit.

Test [10] has as its system VEGF (RNA, G4) GGAGGAGGGGGAGGAGGA
In words: fluorescence titration. As to conditions: 40 mM K+; 20 mM Tris HCl pH 7.0, 25 °C, 2 μM ThT, 1:1 fit.

The subject of test [11] is ssAf20 (DNA) (DNA, single strand) CAATTGTATATATTCG
Put plainly: fluorescence enhancement. To be noted: 40 mM K+; 20 mM Tris HCl pH 7.0; F/F0 59-fold.

Test [12] concerns ADAM10 (RNA, G4) GGGGGACGGGUAGGGGCGGGAGGUAGGGG
In words: fluorescence titration. As to conditions: 40 mM K+; 20 mM Tris HCl pH 7.0, 25 °C, 2 μM ThT, 1:1 fit.

The subject of test [13] is Tel22 (DNA) (DNA, G4) AGGGTTAGGGTTAGGGTTAGGG
In words: fluorescence enhancement. To be noted: 40 mM K+; 20 mM Tris HCl pH 7.0; F/F0 1339-fold.

For test [14], the system named is C9orf72 (DNA) (DNA, G4) GGGGCCGGGGCCGGGGCCGGGGCC
Put plainly: fluorescence enhancement. As to conditions: 40 mM K+; 20 mM Tris HCl pH 7.0; F/F0 252-fold.

The subject of test [15] is ERSI (RNA, G4) GGGUAGGGGCAAAGGGGCUGGGG
In words: fluorescence titration. To be noted: 40 mM K+; 20 mM Tris HCl pH 7.0, 25 °C, 2 μM ThT, 1:1 fit.

The subject of test [16] is Tel22 (RNA) (RNA, G4) AGGGUUAGGGUUAGGGUUAGGG
Put plainly: fluorescence enhancement. To be noted: 40 mM K+; 20 mM Tris HCl pH 7.0, 2 μM ThT, 4 μM RNA; F/F0 440-fold.

In test [17] the test system is dsAf16 (RNA) (RNA, duplex) CUUAAUUGUAUAUAUUCGCGAAUAUAUACAAUUAAG
In words: fluorescence titration. As to conditions: 40 mM K+; 20 mM Tris HCl pH 7.0, 25 °C, 2 μM ThT, 1:1 fit.

The subject of test [18] is BCL-2 (DNA) (DNA, G4) AGGGGGCCGTGGGGTGGGAGCTGGGG
In words: fluorescence enhancement. As to conditions: 40 mM K+; 20 mM Tris HCl pH 7.0; F/F0 458-fold.

Test [19] deals with ZIC1 (RNA, G4) GGGUGGGGGGGGCGGGGGAGGCCGGGG
Put plainly: fluorescence titration. As to conditions: 40 mM K+; 20 mM Tris HCl pH 7.0, 25 °C, 2 μM ThT, 1:1 fit.

The subject of test [20] is dsAf16 (DNA) (DNA, duplex) CTTAATTGTATATATTCGCGAATATATACAATTAAG
Put plainly: fluorescence enhancement. As to conditions: 40 mM K+; 20 mM Tris HCl pH 7.0; F/F0 65-fold.

The test system of test [21] is Bulges-TB1 (RNA, G4) UUGUGGUGGGUGGGUGGGU
Put plainly: fluorescence enhancement. As to conditions: 40 mM K+; 20 mM Tris HCl pH 7.0, 2 μM ThT, 4 μM RNA; F/F0 196-fold.

The test system of test [22] is TRF2 (RNA, G4) CGGGAGGGCGGGGAGGGC
In words: fluorescence titration. As to conditions: 40 mM K+; 20 mM Tris HCl pH 7.0, 25 °C, 2 μM ThT, 1:1 fit.

Take `Cc1ccc2c(c1)sc(-c1ccc(N(C)C)cc1)[n+]2C`: the K entry was “(9.37 ± 1.28) × 10^4 M^-1” in test [1]; “(2.93 ± 0.27) × 10^5 M^-1” in [5]; “(5.62 ± 1.94) × 10^4 M^-1” in test [6]; “(1.92 ± 0.05) × 10^5 M^-1” in test [7]; “(5.53 ± 1.59) × 10^4 M^-1” in test [9]; “(1.24 ± 0.15) × 10^5 M^-1” in [10]. Further, the K result in test [12] was “(2.60 ± 0.12) × 10^5 M^-1”; in test [15], “(2.03 ± 0.12) × 10^5 M^-1”; in [17], “(1.43 ± 1.01) × 10^5 M^-1”; in [19] it was “(0.56 ± 0.22) × 10^5 M^-1”; in test [22] it was “(0.62 ± 0.61) × 10^5 M^-1”. Further, the binding entry in test [2], in test [3], in test [4], in test [8], in test [11] and in test [13] was “yes” in each case. Further, the binding result in [14], in [16], in test [18], in test [20] and in test [21] was “yes” in each case.

For the origin of these results see PMC4838840 (2016).
